The test system of one experiment is MOLM-13. The experiment can be described thus: Cell viability assay (CellTiter-Blue), MOLM-13. It is filed as cell-based. Particulars: Homo sapiens; MOLM-13 cells; cell proliferation/viability; read-out: IC50 MOLM-13 μM (myeloma). The text has this: (§1) The representative compounds of the invention are also screened as regards their effects on cell proliferation and viability using a variety of human tumour cell lines, which are representative of various pathological indications. These cell lines include: • Models of haematological cancers: • TF-1 (acute myelogenic leukaemia; AML M6 at the time of diagnosis); • KG-1 (AML; erythroleukaemia evolving into AML); • KG-1a (AML; sub-clone derived from immature KG-1); • EOL-1 (AML; eosinophilic leukaemia); • PL-21 (AML; M3); • ML-2 (AML; T-NHL evolving into T-ALL evolving into AML M4); • HL-60 (AML, M3); • Kasumi-1 (AML); • GDM-1 (AML); • K-562 (CML—chronic myelogenic leukaemia; blastic crisis); • JURL-MK1 (CML; blastic crisis); • DND-41 (T-ALL—-cell acute lymphoblastic leukaemia); • Jurkat (T-ALL); NALM-6 (B-ALL—B-cell ALL); • CEM (ALL; lymphosarcoma evolving into ALL); • Jeko-1 (B-NHL—B-cell non-Hodgkin lymphoma; mantle-cell lymphoma derived from a variant with large cells as a leukaemic transformation); • WSU-DLCL2 (B-NHL; large B-cell diffuse lymphoma); • RL (B-NHL; undifferentiated diffuse); • OCI-Ly10 (B-NHL); • DoHH-2 (B-NHL); • RPMI-8226 (MM—multiple myeloma); • JVM-2 (B-CLL—B-cell chronic lymphocytic leukaemia); and • JVM-3 (B-CLL) • MV4-11 (AML) • MOLM13 (AML). • Solid tumour models: • HCT-116 (bowel cancer); • HT-29 (bowel cancer); • HC-15 (bowel cancer); • H460 (lung cancer; non-small-cell lung cancer); • A375 (melanoma); • B16F10 (melanoma); • MDA-A1 (breast cancer); • MDA-MB231 (breast cancer); • MDA-MB231 adr (breast cancer); • PANC-1 (pancreatic cancer); and • PC-3 (prostate cancer).
(§2) In order to measure the viability, the tumour cells are incubated in a 96-well or 384-well format for 48, 72 or 96 hours, preferably 72 hours, with a compound of the invention at dilutions of a factor 3 with, in general, nine doses in total, the highest dose being equal to 10 μM or 30 μM. The cell viability is evaluated by adding CellTiter-Blue® (Promega, Madison, Wis., United States) for 4 hours and end-point readings are taken using a SpectraMax Genmini EM (Molecular Devices, Sunnyvale, Calif., United States). The CellTiter-Blue® cell viability assay measures the ability of the cells in culture to reduce resazurin to resorufin, the fluorescence signal intensity being directly proportional to the number of live cells.
Background: The colour change of resazurin is a common sign of viable cells or microbes.

In the next experiment the target is PLK1 (Homo sapiens, UniProt P53350). The experiment can be described thus: PLK1 biochemical inhibition.
PLK1, sequence (P53350 whole entry, species assumed): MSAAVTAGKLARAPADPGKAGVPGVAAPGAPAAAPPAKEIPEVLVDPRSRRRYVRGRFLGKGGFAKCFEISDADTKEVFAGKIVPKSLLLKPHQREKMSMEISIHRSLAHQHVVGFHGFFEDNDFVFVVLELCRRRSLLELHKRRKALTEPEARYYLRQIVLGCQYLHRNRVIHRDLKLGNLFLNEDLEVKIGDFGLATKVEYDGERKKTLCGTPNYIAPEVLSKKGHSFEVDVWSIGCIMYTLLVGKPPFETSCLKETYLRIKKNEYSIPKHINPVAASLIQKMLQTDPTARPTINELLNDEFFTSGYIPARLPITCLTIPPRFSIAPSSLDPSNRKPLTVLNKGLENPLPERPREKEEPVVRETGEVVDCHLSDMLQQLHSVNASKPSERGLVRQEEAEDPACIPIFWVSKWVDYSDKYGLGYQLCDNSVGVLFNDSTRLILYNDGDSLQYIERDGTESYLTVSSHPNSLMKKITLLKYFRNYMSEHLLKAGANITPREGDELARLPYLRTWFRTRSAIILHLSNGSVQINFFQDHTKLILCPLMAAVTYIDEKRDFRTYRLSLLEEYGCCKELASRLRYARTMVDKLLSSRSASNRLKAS
The next experiment concerns the target T1, Pim-3 (Homo sapiens, UniProt Q86V86).
T1 construct: His6-labelled recombinant full-length human Pim-1, Pim-2 or Pim-3 protein; His6; made in house
The experiment can be described thus: TR-FRET assay, Pim-3 kinase (phosphorylation of Bad Ser112). It is filed as biochemical. The following applies: TR-FRET; ATP 40 μM; read-out: IC50 Pim3. The gist of the method: (§3)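 For each of Pim-1, Pim-2 and Pim-3 (His6-tagged full-length human), compounds were titrated over 10 concentrations in duplicate, typically from 30 μM, with ATP at 40 μM, equal to apparent KM. Bad Ser112 phosphorylation was read as the 665/615 nm TR-FRET ratio and IC50 fitted by 4-parameter logistic model.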
For orientation: Time-resolved FRET reads energy transfer from a long-lived donor to a nearby acceptor.

The next experiment addresses T2, Pim-2 (Homo sapiens, UniProt Q9P1W9).
T2 construct: His6-labelled recombinant full-length human Pim-1, Pim-2 or Pim-3 protein; His6; made in house
As to the kind of experiment: TR-FRET assay, Pim-2 kinase (phosphorylation of Bad Ser112). The following applies: TR-FRET; ATP 40 μM; read-out: IC50 Pim2. It is filed as biochemical. In short, it runs like this:
as §3

The target in a further experiment is T3, Pim-1 (Homo sapiens, UniProt P11309).
T3 construct: His6-labelled recombinant full-length human Pim-1, Pim-2 or Pim-3 protein; His6; made in house
T3 sequence (P11309 whole entry): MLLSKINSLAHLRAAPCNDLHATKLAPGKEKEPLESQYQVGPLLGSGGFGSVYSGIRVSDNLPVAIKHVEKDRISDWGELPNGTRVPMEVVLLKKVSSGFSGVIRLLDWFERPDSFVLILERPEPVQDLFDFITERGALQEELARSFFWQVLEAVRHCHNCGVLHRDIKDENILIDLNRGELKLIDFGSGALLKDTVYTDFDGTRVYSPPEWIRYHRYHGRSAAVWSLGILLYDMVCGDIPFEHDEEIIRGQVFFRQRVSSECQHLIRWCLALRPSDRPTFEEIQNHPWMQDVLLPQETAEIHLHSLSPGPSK
The experiment can be described thus: TR-FRET assay, Pim-1 kinase (phosphorylation of Bad Ser112). It is filed as biochemical. The following applies: TR-FRET; ATP 40 μM; read-out: IC50 Pim1. In short, it runs like this:
as §3

For another experiment, the system named is MV4-11. As to the kind of experiment: Cell viability assay (CellTiter-Blue), MV4-11. The following applies: Homo sapiens; MV4-11 cells; cell proliferation/viability; read-out: IC50 MV4-11 μM (myeloma). It is filed as cell-based.
Text: as §1, §2

A further experiment relates to EOL-1. As to the kind of experiment: Cell viability assay (CellTiter-Blue), EOL-1. Particulars: Homo sapiens, EOL1, read-out: EC50 EOL-1 μM (lymphoma); EOL-1 cells; cell proliferation/viability. It is filed as cell-based.
Text: as §1, §2

SMILES strings stand for the structures.

T2 sequence (Q9P1W9 whole entry): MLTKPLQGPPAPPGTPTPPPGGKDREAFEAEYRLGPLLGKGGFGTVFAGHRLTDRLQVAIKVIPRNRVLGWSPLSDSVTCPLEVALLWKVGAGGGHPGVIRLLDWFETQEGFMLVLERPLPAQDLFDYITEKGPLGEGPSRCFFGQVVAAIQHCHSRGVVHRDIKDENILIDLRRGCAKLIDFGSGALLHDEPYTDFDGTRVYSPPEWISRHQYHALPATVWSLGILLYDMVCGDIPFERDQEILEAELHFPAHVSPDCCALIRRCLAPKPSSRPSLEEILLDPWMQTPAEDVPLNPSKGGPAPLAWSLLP

`CC(COc1ccc(-c2c(F)cnc3[nH]c4cnc(-c5cccnc5)cc4c23)cc1)CN(C)C` (stereo not drawn) [Example 98, 3-{4-[3-fluoro-6-(pyrid-3-yl)-9H-pyrrolo[2,3-b:5,4-c′]dipyrid-4-yl]phenoxy}-N,N,2-trimethylpropan-1-amine]: the IC50 in the experiment on MOLM-13 lay within 100 to 1000 nM; on PLK1, 100 to 1000 nM; at Pim-3, 1 to 100 nM; on Pim-2, 1 to 100 nM; at Pim-1, 1 to 100 nM; in the experiment with MV4-11 it was 100 to 1000 nM. The EC50 with EOL-1 was in the range of 1 to 100 nM.

Consider `c1cncc(-c2cc3c(cn2)[nH]c2ncc(-c4ccc(N5CCNCC5)cc4)cc23)c1` [Example 130, 3-[4-(piperazin-1-yl)phenyl]-6-(pyrid-3-yl)-9H-pyrrolo[2,3-b:5,4-c′]dipyridine], for which the IC50 in the experiment with MOLM-13 fell in the range of 1 to 100 nM; on Pim-3 it was 1 to 100 nM; on Pim-2 it was 100 to 1000 nM; on Pim-1, 1 to 100 nM; with MV4-11 it was 1 to 100 nM. For the same compound, in the experiment with EOL-1, the EC50 was 1 to 100 nM.

As for `CCN1CCCC1Cn1cc(-c2cnc3[nH]c4cnc(-c5cccnc5)cc4c3c2)cn1` (stereo not drawn) [Example 128, 3-{1-[(1-ethylpyrrolidin-2-yl)methyl]-1H-pyrazol-4-yl}-6-(pyrid-3-yl)-9H-pyrrolo[2,3-b:5,4-c′]dipyridine], the IC50 in the experiment on MOLM-13 and in the experiment on MV4-11 was 1 to 100 nM in each case. For the same compound, the EC50 in the experiment on EOL-1 was in the range of 1 to 100 nM.

`CCN1CCN(C(C)(C)C#Cc2c(F)cnc3[nH]c4cnc(-c5cccnc5)cc4c23)CC1` [Example 92, 4-[3-(4-ethylpiperazin-1-yl)-3-methylbut-1-yn-1-yl]-3-fluoro-6-(pyrid-3-yl)-9H-pyrrolo-[2,3-b:5,4-c′]dipyridine]: the IC50 fell in the range of 100 to 1000 nM against PLK1; 1 to 100 nM at Pim-3; 1000 to 5000 nM at Pim-2; 1 to 100 nM at Pim-1; 1000 to 5000 nM in the experiment on MV4-11. In addition, the EC50 in the experiment with EOL-1 fell in the range of 100 to 1000 nM.

In the case of `CCN(CC)CCn1cc(-c2cnc3[nH]c4cnc(-c5cccnc5)cc4c3c2)cn1` [Example 123, N,N-diethyl-2-{4-[6-(pyrid-3-yl)-9H-pyrrolo-[2,3-b:5,4-c′]-dipyrid-3-yl]-1H-pyrazol-1-yl}-ethanamine], the IC50 in the experiment on MOLM-13 was 1 to 100 nM; at PLK1, 1000 to 5000 nM; on Pim-3 it was 1 to 100 nM; at Pim-2 it was 100 to 1000 nM; on Pim-1, 1 to 100 nM; in the experiment with MV4-11, 1 to 100 nM. In addition, in the experiment on EOL-1, the half-maximal effective concentration (EC50) was in the range of 1 to 100 nM.

As for `COc1ccnc2[nH]c3cnc(-c4cccnc4)cc3c12` [Example 8, 4-methoxy-6-(pyrid-3-yl)-9H-pyrrolo-[2,3-b:5,4-c′]-dipyridine], the IC50 in the experiment with MOLM-13 is 100 to 1000 nM; against PLK1, 100 to 1000 nM; at Pim-3, 100 to 1000 nM; at Pim-2, 1000 to 5000 nM; on Pim-1, 1 to 100 nM; in the experiment on MV4-11 it was 100 to 1000 nM. In addition, the EC50 in the experiment on EOL-1 fell in the range of 100 to 1000 nM.

As for `CN(C)CCOc1ccc(-c2c(F)cnc3[nH]c4cnc(-c5cccnc5)cc4c23)cc1` [Example 96, 2-{4-[3-fluoro-6-(pyrid-3-yl)-9H-pyrrolo[2,3-b:5,4-c′]dipyrid-4-yl]-phenoxy}-N,N-dimethylethanamine], the IC50 in the experiment with MOLM-13 was 100 to 1000 nM; against PLK1, 100 to 1000 nM; on Pim-3, 1 to 100 nM; at Pim-2, 100 to 1000 nM; at Pim-1 it was 1 to 100 nM; with MV4-11, 100 to 1000 nM. The EC50 with EOL-1 was in the range of 1 to 100 nM.

Consider `COc1cnc2[nH]c3cnc(-c4cnn(C)c4)cc3c2c1` [Example 163, 3-methoxy-6-(1-methyl-1H-pyrazol-4-yl)-9H-pyrrolo[2,3-b:5,4-c′]dipyridine], for which the IC50 against PLK1 lay within 1000 to 5000 nM; on Pim-3 it was 1 to 100 nM; at Pim-2, 100 to 1000 nM; at Pim-1, 1 to 100 nM; in the experiment with MV4-11, 100 to 1000 nM. In addition, the 50% effective concentration (EC50) in the experiment on EOL-1 was in the range of 100 to 1000 nM.

With `Cc1n[nH]c(C)c1-c1cnc2[nH]c3cnc(-c4cccnc4)cc3c2c1` [Example 120, 3-(3,5-dimethyl-1H-pyrazol-4-yl)-6-(pyrid-3-yl)-9H-pyrrolo[2,3-b:5,4-c′]-dipyridine], the IC50 in the experiment with MOLM-13 was 100 to 1000 nM; at PLK1, 100 to 1000 nM; at Pim-3, 1 to 100 nM; on Pim-2 it was > 5000 nM; on Pim-1, 1 to 100 nM; in the experiment on MV4-11, 1 to 100 nM. In the experiment on EOL-1, the half-maximal effective concentration (EC50) fell in the range of 1 to 100 nM.

On to `CC(C)N1CCN(c2ccc(-c3cnc4[nH]c5cnc(-c6cccnc6)cc5c4c3)cc2)CC1` [Example 122, 3-{4-[4-(propan-2-yl)piperazin-1-yl]phenyl}-6-(pyrid-3-yl)-9H-pyrrolo[2,3-b:5,4-c′]-dipyridine], for which the IC50 lay within 1000 to 5000 nM against PLK1; 1 to 100 nM at Pim-3; 100 to 1000 nM at Pim-2; 1 to 100 nM at Pim-1; 1 to 100 nM in the experiment with MV4-11. The EC50 in the experiment with EOL-1 lay in the range of 1 to 100 nM.

As for `CCN(CC)CCCn1cc(-c2cnc3[nH]c4cnc(-c5cccnc5)cc4c3c2)cn1` [Example 127, N,N-diethyl-3-{4-[6-(pyrid-3-yl)-9H-pyrrolo-[2,3-b:5,4-c′]-dipyrid-3-yl]-1H-pyrazol-1-yl}-propan-l-amine], the IC50 at PLK1 fell in the range of 1000 to 5000 nM; on Pim-3 it was 1 to 100 nM; at Pim-2 it was 100 to 1000 nM; on Pim-1 it was 1 to 100 nM; with MV4-11, 1 to 100 nM. Besides, in the experiment on EOL-1, the EC50 was 1 to 100 nM.

In the case of `COc1cnc2[nH]c3cnc(-c4cccnc4)cc3c2c1` [Example 7, 3-methoxy-6-(pyrid-3-yl)-9H-pyrrolo-[2,3-b:5,4-c′]-dipyridine], the IC50 in the experiment with MOLM-13 lay within 100 to 1000 nM; at PLK1 it was 100 to 1000 nM; on Pim-3, 1 to 100 nM; on Pim-2 it was 100 to 1000 nM; on Pim-1, 1 to 100 nM; with MV4-11, 100 to 1000 nM. Besides, the concentration for a half-maximal effect (EC50) with EOL-1 is 100 to 1000 nM.

With `CN(C)CCCN(c1ccc(-c2c(F)cnc3[nH]c4cnc(-c5cccnc5)cc4c23)cc1)S(C)(=O)=O` [Example 49, N-[3-(dimethylamino)propyl]-N-{4-[3-fluoro-6-(pyrid-3-yl)-9H-pyrrolo[2,3-b:5,4-c′]-dipyrid-4-yl]phenyl}methanesulfonamide], the IC50 lay in the range of 100 to 1000 nM against PLK1; 1 to 100 nM on Pim-3; 1 to 100 nM on Pim-2; 1 to 100 nM at Pim-1; 1 to 100 nM in the experiment on MV4-11. For the same compound, the EC50 in the experiment on EOL-1 was in the range of 1 to 100 nM.

As for `Fc1cnc2[nH]c3cnc(-c4cccnc4)cc3c2c1N1CCOCC1` [Example 33, 3-fluoro-4-(morpholin-4-yl)-6-(pyrid-3-yl)-9H-pyrrolo[2,3-b:5,4-c′]-dipyridine], the 50% inhibitory concentration (IC50) is 100 to 1000 nM in the experiment with MOLM-13; 100 to 1000 nM at Pim-3; 100 to 1000 nM on Pim-2; 1 to 100 nM at Pim-1; 1000 to 5000 nM with MV4-11. In the experiment on EOL-1, the EC50 fell in the range of 100 to 1000 nM.

Broadly, the IC50 is the concentration that inhibits the measured activity by half. As usually defined, the EC50 is the concentration at which the effect is half-maximal.

These data come from patent US20110178053A1, “AZACARBOLINE DERIVATIVES, PREPARATION METHOD THEREOF AND THERAPEUTIC USE OF SAME” (SANOFI-AVENTIS, priority 2008, published 2011).
